Assay results published in article PMC4363177 (Bioorganic & medicinal chemistry, 2015).

Legend:
[1] = target: human serotonin 5-HT2B receptor (Homo sapiens, UniProt P41595); assay: Radioligand competitive displacement binding, 5-HT2B
[2] = target: human serotonin 5-HT2A receptor (Homo sapiens, UniProt P28223); assay: Radioligand competitive displacement binding, 5-HT2A
5-HT2A receptor = conditions: cited from earlier work
locomotor activity = conditions: administered alone; cited from earlier work

Chain of human serotonin 5-HT2A receptor (P28223 whole entry): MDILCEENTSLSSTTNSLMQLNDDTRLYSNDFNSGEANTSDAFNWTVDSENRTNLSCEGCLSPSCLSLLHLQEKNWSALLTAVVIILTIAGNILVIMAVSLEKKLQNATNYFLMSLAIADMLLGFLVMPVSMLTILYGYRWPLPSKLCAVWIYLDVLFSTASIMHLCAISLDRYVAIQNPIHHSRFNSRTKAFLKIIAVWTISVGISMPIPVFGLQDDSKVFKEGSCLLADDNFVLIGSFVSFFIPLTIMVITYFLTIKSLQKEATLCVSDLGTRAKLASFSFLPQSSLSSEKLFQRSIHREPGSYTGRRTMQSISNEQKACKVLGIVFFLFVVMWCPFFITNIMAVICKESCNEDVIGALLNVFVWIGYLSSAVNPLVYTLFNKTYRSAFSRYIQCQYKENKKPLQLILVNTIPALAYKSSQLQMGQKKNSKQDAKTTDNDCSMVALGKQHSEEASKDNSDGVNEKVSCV
Chain of human serotonin 5-HT2B receptor (P41595 whole entry): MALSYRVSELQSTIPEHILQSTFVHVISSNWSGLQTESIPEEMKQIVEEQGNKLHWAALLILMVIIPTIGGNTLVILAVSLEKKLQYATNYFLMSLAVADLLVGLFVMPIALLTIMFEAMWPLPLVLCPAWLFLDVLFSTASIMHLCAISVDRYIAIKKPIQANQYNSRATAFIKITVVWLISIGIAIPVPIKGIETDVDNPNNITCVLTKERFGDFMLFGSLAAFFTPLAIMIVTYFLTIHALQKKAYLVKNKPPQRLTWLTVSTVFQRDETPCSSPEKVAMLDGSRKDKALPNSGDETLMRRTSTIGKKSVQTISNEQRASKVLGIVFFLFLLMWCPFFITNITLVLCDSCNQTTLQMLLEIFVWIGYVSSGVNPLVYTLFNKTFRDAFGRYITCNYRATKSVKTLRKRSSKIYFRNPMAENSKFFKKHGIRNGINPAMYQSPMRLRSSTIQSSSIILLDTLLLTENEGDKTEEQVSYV

CN(C)[C@@H]1Cc2ccccc2[C@@H](c2ccccc2)C1 [(+)-trans-PAT, trans-4-phenyl-N,N-dimethyl-1,2,3,4-tetrahydronaphthalen-2-amine]
Ki [1]: 240 nM
Ki [2]: 470 nM

CN(C)[C@@H]1Cc2ccccc2[C@@H](c2ccccc2)C1 (relative stereo) [(−)-trans-PAT, (2S, 4R)-(−)-trans-4-phenyl-N,N-dimethyl-1,2,3,4-tetrahydronaphthalen-2-amine]
functional activity at 5-HT2A receptors (5-HT2A receptor): inverse agonist (and competitive antagonist) activity

CN1CCN(C2=Nc3cc(Cl)ccc3Nc3ccccc32)CC1 [clozapine]
effect on locomotor activity (locomotor activity): suppressed locomotor activity
